According to patent publication EP4813463A2, “TYK2 INHIBITORS AND COMPOSITIONS AND METHODS THEREOF” (Lynk Pharmaceuticals Co. Ltd., priority 2023, dated 2024):

System: T cell transfer colitis model
Experiment: SCID mice colitis by T cell transfer pharmacodynamics study
Type: in vivo, C.B17-SCID mice
Description: This study aimed to obtain the pharmacodynamics of the test article in T cell transfer colitis model after oral administration. For induction of colitis, naive CD4^+ T cells (CD4^+CD44^lowCD62L^high) were adoptively transferred from MHC-compatible Balb/c mice to C.B17-SCID recipients. Balb/c splenocytes were […] selected for CD4^+ T cells using the Mouse Naïve CD4^+ T Cell Isolation Kit (Cat #19765, […]), 1.5×10^6 cells in a volume of 100 µL PBS were transferred to each recipient by i.v. injection on Day 0. C.B17-SCID mice obtained from the Beijing Vital River Laboratory Animal Technology Co., Ltd. Starting on Day 0 and continuing daily through Day 32, mice (n = 8 per group) were dosed with 0 (vehicle control), 45 mg/kg PO BID compound 7A in a vehicle containing 5% DMSO, 65% PEG400, and 30% DDH2O (v/v/v).
Each mouse was scored three times weekly for pathological features, including stool consistency, and body weight loss. Individual scores were combined to generate the DAI, the maximum score was 6. At the termination of the study, the colon was collected for measuring colon index (weight, length, and density), emptied of fecal contents opened longitudinally along the mesenteric border, and formed a Swiss-Roll from the proximal to the distal end, processed to paraffin-embedded blocks to generate 5-µm-thick sections for hematoxylin and eosin (H&E) staining. Slices were evaluated in a blinded manner and histological scores were assessed based on the following parameters: inflammation, epithelial defects, crypt atrophy, dysplasia, and the area affected by dysplasia.

[1] = 45mpk PO BID, Day 0 through Day 32, mean ± SEM, n = 8

[2H]C([2H])([2H])NC(=O)c1cnc(NC(=O)C2CC2)cc1Nc1cnn2ccc([C@H](O)C(F)(F)F)c(OC)c12 [Example 7A, (S)-6-(cyclopropanecarboxamido)-4-((4-methoxy-5-(2,2,2-trifluoro-1-hydroxyethyl)pyrazolo[1,5-a]pyridin-3-yl)amino)-N-(methyl-d3)nicotinamide]
Colon density [1]: 27.66 ± 1.24 mg/cm | Colon length (cm) [1]: 7.94±0.32 cm | Colon weight [1]: 218.38 ± 10.13 mg | Spleen index [1]: 3.08 ± 0.36 mg/g | disease-related weight loss (FIG. 2. A, result in words): inhibiting | DAI scores (FIG. 2. B, result in words): inhibiting | absolute value of Th1 and Th17 cells (FIG. 3. B-C, result in words): significantly reduced | percentage value of CD4^+T cells and Th17 cells in whole blood (FIG. 3. D-E, result in words): significantly reduced | CD4^+T cells in colonic tissue (FIG. 4. A, result in words): significantly reduced | colonic histopathological changes (FIG. 4. B, result in words): inhibiting | colitis symptoms (orally twice daily, result in words): alleviated colitis symptoms
